Experimental data as given in US8846696B2, “Purine derivatives” (Cyclacel Limited, priority 2002, dated 2014).
Read-outs that look alike come from different tables or passages of the source.

Legend:
ERK-2 = ERK-2 (Homo sapiens (Human), UniProt P28482); assay: Kinase assay ERK-2; settings: read-out: Kinase inhibition ERK2 IC50
Description: (§3) Recombinant cyclin D1 was expressed in E. coli. […] Reactions were stopped on ice, followed by filtration through p81 filterplates or GF/C filterplates (for CDK4) (Whatman Polyfiltronics, Kent, UK), except for CDK7 where, after stopping reaction on ice, 10 μL of 10 mg/mL avidin was added to each well and further incubated for 10 min followed by filtration as per CDK2 assay. After washing 3 times with 75 mM aq orthophosphoric acid, plates were dried, scintillant added and incorporated radioactivity measured in a scintillation counter (TopCount, Packard Instruments, Pangbourne, Berks, UK). Compounds for kinase assay were made up as 10 mM stocks in DMSO and diluted into 10% DMSO in assay buffer.

CDK1/cyclin B = CDK1/cyclin B (Homo sapiens (Human), UniProt P06493); assay: Kinase assay CDK1/cyclin B; assay type: biochemical; settings: read-out: Kinase inhibition CDK1/cyclin B IC50
Description: as §3

CDK2/cyclin E = CDK2/cyclin E (Homo sapiens (Human), UniProt P24941); assay: Kinase assay CDK2/cyclin E; assay type: biochemical; settings: for A × B: comparative in vitro efficacy; for B: IC50 CDK2 roscovitine/IC50 CDK2 compound: ratio to roscovitine; for IC50: read-out: Kinase inhibition CDK2/cyclin E IC50
Description: as §3

CDK7/cyclin H = CDK7/cyclin H (Homo sapiens (Human), UniProt P50613); assay: Kinase assay CDK7/cyclin H; assay type: biochemical; settings: read-out: Kinase inhibition CDK7/cyclin H IC50
Description: Reactions were stopped on ice, followed by filtration through p81 filterplates or GF/C filterplates (for CDK4) (Whatman Polyfiltronics, Kent, UK), except for CDK7 where, after stopping reaction on ice, 10 μL of 10 mg/mL avidin was added to each well and further incubated for 10 min followed by filtration as per CDK2 assay. After washing 3 times with 75 mM aq orthophosphoric acid, plates were dried, scintillant added and incorporated radioactivity measured in a scintillation counter (TopCount, Packard Instruments, Pangbourne, Berks, UK). Compounds for kinase assay were made up as 10 mM stocks in DMSO and diluted into 10% DMSO in assay buffer.

CDK4/cyclin D1 = CDK4/cyclin D1 (Homo sapiens (Human), UniProt P11802); settings: read-out: Kinase inhibition CDK4/cyclin D1 IC50
Description: as §3

[1] = system: Human tumour cell lines: A549, HT29, Saos-2; assay: 72-h MTT cytotoxicity assay, tumour cell lines A549, HT29, Saos-2; assay type: cell-based; settings: for IC50: 72 h, read-out: In vitro anti-proliferative activity (72-h MTT IC50), Human tumour cell lines: A549, HT29, Saos-2; for C: IC50 cytotox. roscovitine/IC50 cytotox. compound: ratio to roscovitine
Description: (§1) In short: cells were seeded into 96-well plates according to doubling time and incubated overnight at 37° C. Test compounds were made up in DMSO and a ⅓ dilution series prepared in 100 μL cell media, added to cells (in triplicates) and incubated for 72 ho at 37° C. MTT was made up as a stock of 5 mg/mL in cell media and filter-sterilised. Media was removed from cells followed by a wash with 200 μL PBS. MTT solution was then added at 20 μL per well and incubated in the dark at 37° C. for 4 h. MTT solution was removed and cells again washed with 200 μL PBS. MTT dye was solubilised with 200 μL per well of DMSO with agitation.

[2] = molecular target: cyclic AMP-dependent kinase (PKA) catalytic subunit (Homo sapiens (Human), UniProt P17612); assay: Kinase assay PKA; settings: read-out: Kinase inhibition PKA IC50
Description: as §3

[3] = 10 μM
Description: (§4) Calibration curves were prepared at 0, 1, and 10 μM in microsomes pre-incubated for 30 min and these were also treated with methanol containing olomoucine. All samples were then centrifuged and the supernatants analysed by liquid chromatography-mass spectrometry.
(§5) The chromatography column was a Supelco LC-ABZ, 50×4.6 mm, 5 μm zwitterionic column (Supelco Inc., Supelco Park, Bellefonte, Pa., USA). Gradient eluants consisted of methanol (A) and 0.1% formic acid in water (B). […] The flow rate was 1 mL/min throughout. […] Eluant from the detector passed, without splitting, into a Thernoquest LCQ ion trap mass spectrometer fitted with an electrospray source operated in positive mode. Mass spectrometer conditions were sheath gas 80, auxiliary gas 20 (both arbitrary units), capillary voltage 4 to 4.5 kV and heated capillary temperature 250 to 280° C. The mass range was 50-750. Scan time was controlled by the ion trap which was set to a maximum ion injection time of 200 ms or the time required to inject 2×10^8 ions; for each scan the system automatically used whichever time was reached first.
(§6) The peak area ration (test compound/internal standard) of the test incubation was then compared with the peak area ratios obtained fro the calibration curve of the test compound. From these values the concentration of test compound remaining after 30 min microsomal protein incubation was determined.

HeLa = assay: 72-h MTT assay HeLa; assay type: cell-based; settings: Homo sapiens, read-out: 72-h MTT IC50, cervical adenocarcinoma
Description: as §1
(§2) Representative compounds of this invention were examined for their anti-proliferative effect against human tumour cell lines and immortalized non-transformed human cell lines (“normal” cell lines).

Saos-2 = assay: 72-h MTT assay Saos-2; assay type: cell-based; settings: Homo sapiens, read-out: 72-h MTT IC50, Saos-2, osteosarcoma
Description: as §1, §2

IMR90 = assay: 72-h MTT assay IMR90; assay type: cell-based; settings: Homo sapiens, IMR-90, 72 h, read-out: 72-h MTT IC50; IMR90, normal embryo lung fibroblast
Description: as §1, §2

A549 = assay: 72-h MTT assay A549; assay type: cell-based; settings: Homo sapiens, read-out: 72-h MTT IC50, A549, lung carcinoma
Description: as §1, §2

MCF7 = assay: 72-h MTT assay MCF7; assay type: cell-based; settings: Homo sapiens, read-out: 72-h MTT IC50, MCF7, mammary adenocarcinoma
Description: as §1, §2

Hs27 = assay: 72-h MTT assay Hs27; assay type: cell-based; settings: Homo sapiens, read-out: 72-h MTT IC50, Hs27, normal foreskin fibroblast
Description: as §1, §2

cancer cell lines = assay: 72-h MTT assay, mean of cancer cell lines; assay type: cell-based; settings: Homo sapiens, read-out: 72-h MTT IC50
Description: as §1, §2

normal cell lines = assay: 72-h MTT assay, mean of normal cell lines; assay type: cell-based; settings: Homo sapiens, read-out: 72-h MTT IC50
Description: as §1, §2

HT-29 = assay: 72-h MTT assay HT-29; assay type: cell-based; settings: Homo sapiens, read-out: 72-h MTT IC50, HT-29, colorectal adenocarcinoma
Description: as §1, §2

WI38 = assay: 72-h MTT assay WI38; assay type: cell-based; settings: Homo sapiens, WI-38, 72 h, read-out: 72-h MTT IC50; WI38, normal foetal lung fibroblast
Description: as §1, §2

[4] = Comparative in vitro metabolism assay (microsomal incubation)
Description: as §4, §5, §6

HL-60 = assay: 72-h MTT assay HL-60; assay type: cell-based; settings: Homo sapiens, read-out: 72-h MTT IC50, HL-60, acute promyelocytic leukaemia
Description: as §1, §2

K-562 = assay: 72-h MTT assay K-562; assay type: cell-based; settings: Homo sapiens, K562, 72 h, read-out: 72-h MTT IC50
Description: as §1, §2

CCRF-CEM = assay: 72-h MTT assay CCRF-CEM; assay type: cell-based; settings: Homo sapiens, read-out: 72-h MTT IC50, acute lymphoblastic leukaemia
Description: as §1, §2

Sequence of CDK4/cyclin D1 (P11802 whole entry): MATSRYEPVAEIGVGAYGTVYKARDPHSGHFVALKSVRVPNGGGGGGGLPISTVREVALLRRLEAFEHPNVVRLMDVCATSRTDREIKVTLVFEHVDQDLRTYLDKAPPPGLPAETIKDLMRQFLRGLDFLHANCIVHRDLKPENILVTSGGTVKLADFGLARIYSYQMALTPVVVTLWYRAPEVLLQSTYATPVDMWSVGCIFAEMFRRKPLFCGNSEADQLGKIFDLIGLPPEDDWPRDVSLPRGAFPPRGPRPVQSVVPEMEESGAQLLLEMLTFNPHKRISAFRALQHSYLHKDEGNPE
Sequence of CDK4/cyclin D1 (P24385 whole entry partner): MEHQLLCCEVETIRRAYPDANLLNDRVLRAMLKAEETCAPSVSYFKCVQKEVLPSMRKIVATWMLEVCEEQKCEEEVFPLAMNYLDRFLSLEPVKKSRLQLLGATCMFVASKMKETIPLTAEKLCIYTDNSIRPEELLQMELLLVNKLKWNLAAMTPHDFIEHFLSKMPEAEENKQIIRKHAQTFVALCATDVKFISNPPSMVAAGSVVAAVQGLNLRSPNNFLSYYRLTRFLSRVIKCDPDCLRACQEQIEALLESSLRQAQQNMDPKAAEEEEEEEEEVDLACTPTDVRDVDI
Sequence of ERK-2 (P28482 whole entry, species assumed): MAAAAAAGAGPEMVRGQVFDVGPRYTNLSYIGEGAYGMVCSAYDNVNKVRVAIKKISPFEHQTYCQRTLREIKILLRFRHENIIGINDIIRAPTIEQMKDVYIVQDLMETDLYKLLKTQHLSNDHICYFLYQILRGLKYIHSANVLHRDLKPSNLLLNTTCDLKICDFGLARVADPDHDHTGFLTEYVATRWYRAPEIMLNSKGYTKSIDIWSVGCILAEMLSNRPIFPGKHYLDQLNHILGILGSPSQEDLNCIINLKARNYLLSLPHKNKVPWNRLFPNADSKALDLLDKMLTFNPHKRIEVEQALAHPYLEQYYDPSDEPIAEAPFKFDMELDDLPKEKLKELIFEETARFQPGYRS
Sequence of CDK1/cyclin B (P06493 whole entry): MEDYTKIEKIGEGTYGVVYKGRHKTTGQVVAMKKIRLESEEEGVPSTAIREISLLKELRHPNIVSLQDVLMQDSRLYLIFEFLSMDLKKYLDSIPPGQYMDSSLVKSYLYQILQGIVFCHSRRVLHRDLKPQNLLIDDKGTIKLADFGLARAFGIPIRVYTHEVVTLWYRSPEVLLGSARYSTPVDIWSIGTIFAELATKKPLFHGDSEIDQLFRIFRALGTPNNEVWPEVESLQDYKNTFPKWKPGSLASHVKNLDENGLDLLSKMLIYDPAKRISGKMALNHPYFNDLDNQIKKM
Sequence of CDK1/cyclin B (P14635 whole entry partner): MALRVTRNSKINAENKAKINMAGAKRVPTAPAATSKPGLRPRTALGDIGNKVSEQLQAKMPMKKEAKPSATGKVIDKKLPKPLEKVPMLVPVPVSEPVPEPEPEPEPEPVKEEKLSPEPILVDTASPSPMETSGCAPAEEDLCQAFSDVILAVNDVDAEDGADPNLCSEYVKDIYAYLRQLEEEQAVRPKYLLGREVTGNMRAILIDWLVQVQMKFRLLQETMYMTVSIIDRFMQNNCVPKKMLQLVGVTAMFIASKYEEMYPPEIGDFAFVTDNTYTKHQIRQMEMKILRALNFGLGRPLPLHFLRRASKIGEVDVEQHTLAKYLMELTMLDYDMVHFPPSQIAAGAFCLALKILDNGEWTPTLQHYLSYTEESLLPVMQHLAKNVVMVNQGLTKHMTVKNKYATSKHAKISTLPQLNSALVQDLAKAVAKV
Sequence of CDK7/cyclin H (P50613 whole entry): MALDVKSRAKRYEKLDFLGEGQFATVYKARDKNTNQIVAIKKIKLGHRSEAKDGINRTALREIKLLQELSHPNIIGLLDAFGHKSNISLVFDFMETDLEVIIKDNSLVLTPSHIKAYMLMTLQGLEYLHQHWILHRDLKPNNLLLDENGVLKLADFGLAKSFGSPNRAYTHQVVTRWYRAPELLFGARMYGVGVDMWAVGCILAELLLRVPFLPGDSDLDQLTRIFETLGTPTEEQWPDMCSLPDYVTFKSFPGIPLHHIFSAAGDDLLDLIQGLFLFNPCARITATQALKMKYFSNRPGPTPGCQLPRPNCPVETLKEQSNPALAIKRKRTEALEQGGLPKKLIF
Sequence of CDK7/cyclin H (P51946 whole entry partner): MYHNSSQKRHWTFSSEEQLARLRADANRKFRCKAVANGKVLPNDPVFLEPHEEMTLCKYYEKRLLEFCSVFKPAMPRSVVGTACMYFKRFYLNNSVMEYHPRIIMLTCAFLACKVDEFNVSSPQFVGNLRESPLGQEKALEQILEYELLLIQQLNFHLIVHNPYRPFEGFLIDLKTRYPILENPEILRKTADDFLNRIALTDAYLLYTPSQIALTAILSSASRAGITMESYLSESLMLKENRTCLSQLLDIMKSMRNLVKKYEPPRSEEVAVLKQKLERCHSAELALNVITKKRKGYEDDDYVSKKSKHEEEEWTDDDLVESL

| Structure (SMILES) | IC50 (ERK-2) | IC50 (CDK1/cyclin B) | A × B (CDK2/cyclin E) | B: IC50 CDK2 roscovitine/IC50 CDK2 compound (CDK2/cyclin E) | IC50 (CDK2/cyclin E) | IC50 (CDK7/cyclin H) | IC50 (CDK4/cyclin D1) | IC50 [1] | C: IC50 cytotox. roscovitine/IC50 cytotox. compound [1] | IC50 [2] | % Drug after 30 min. microsomal incubation [3] | other results |
| --- | --- | --- | --- | --- | --- | --- | --- | --- | --- | --- | --- | --- |
| CC[C@@H](Nc1nc(NCc2cccnc2)c2ncn(C(C)C)c2n1)C(C)(C)O [(3R)-3-{9-Isopropyl-6-[(pyridin-3-ylmethyl)-amino]-9H-purin-2-ylamino}-2-methyl-pentan-2-ol] | 91 µM | 6.2 µM | 1.3 | 0.5 | 0.2 µM | 3.1 µM | 7.5 µM | 5.6 µM | 2.1 | > 200 µM | 84% | – |
| CCC(O)[C@@H](CC)Nc1nc(NCc2cccnc2)c2ncn(C(C)C)c2n1 (mixture of isomers) [(3RS,4R)-4-{9-Isopropyl-6-[(pyridin-3-ylmethyl)-amino]-9H-purin-2-ylamino}-hexan-3-ol] | 37 µM | 12 µM | 1.0 | 0.5 | 0.22 µM | 1.1 µM | 25 µM | 10 µM | 1.1 | > 200 µM | 70% | – |
| CC[C@@H](Nc1nc(NCc2cccnc2)c2ncn(C(C)C)c2n1)C(O)C(C)(C)C (mixture of isomers) [(3RS,4R)-4-{9-Isopropyl-6-[(pyridin-3-ylmethyl)-amino]-9H-purin-2-ylamino}-2,2-dimethyl-hexan-3-ol] | 51 µM | 23 µM | – | – | 1 µM | 1.6 µM | 24 µM | 19 µM | – | > 200 µM | – | – |
| CC[C@@H](Nc1nc(NCc2cccnc2)c2ncn(C(C)C)c2n1)[C@H](C)O [(2S3R)-3-{9-Isopropyl-6-[(pyridin-3-ylmethyl)-amino]-9H-purin-2-ylamino}-pentan-2-ol] | 23 µM | 4.9 µM | 3.1 | – | – | – | – | 1.5 µM | – | > 200 µM | 90% | IC50 (HeLa): 2.9 ± 0.2 µM; IC50 (Saos-2): 2.8 ± 0.1 µM; IC50 (IMR90): > 20 µM; IC50 (A549): 2.1 ± 0.4 µM; IC50 (MCF7): 1.6 ± 0.2 µM; IC50 (Hs27): 10.2 ± 0.6 µM; IC50 (cancer cell lines): 2.3 ± 0.5 µM; IC50 (normal cell lines): > 10 µM; IC50 (HT-29): 2.3 ± 0.6 µM; IC50 (WI38): 11.2 ± 1.2 µM |
| CC[C@H](Nc1nc(NCc2cccnc2)c2ncn(C(C)C)c2n1)[C@@H](C)O [(2R3S)-3-{9-Isopropyl-6-[(pyridin-3-ylmethyl)-amino]-9H-purin-2-ylamino}-pentan-2-ol] | 20 µM | 2.2 µM | 7.5 | – | – | – | – | 0.8 µM | – | > 200 µM | 67% | IC50 (HeLa): 1.4 ± 0.2 µM; IC50 (Saos-2): 1.2 ± 0.2 µM; IC50 (IMR90): > 20 µM; IC50 (A549): 0.9 ± 0.1 µM; IC50 (MCF7): 0.7 ± 0.1 µM; IC50 (Hs27): 5.9 ± 0.3 µM; IC50 (cancer cell lines): 1.1 ± 0.3 µM; IC50 (normal cell lines): > 10 µM; IC50 (HT-29): 1.1 ± 0.2 µM; IC50 (WI38): 6.1 ± 0.3 µM |
| CC[C@H](Nc1nc(NCc2cccnc2)c2ncn(C(C)C)c2n1)C(O)C(C)(C)C (mixture of isomers) [(3RS,4S)-4-{9-Isopropyl-6-[(pyridin-3-ylmethyl)-amino]-9H-purin-2-ylamino}-2,2-dimethyl-hexan-3-ol] | 23 µM | 21 µM | 0.4 | 0.3 | 0.39 µM | 3.5 µM | 13 µM | 15 µM | 0.8 | > 200 µM | 50% | – |
| CC[C@@H](Nc1nc(NCc2cccnc2)c2ncn(C(C)C)c2n1)C(O)C(C)C (mixture of isomers) [(3RS,4R)-4-{9-Isopropyl-6-[(pyridin-3-ylmethyl)-amino]-9H-purin-2-ylamino}-2-methyl-hexan-3-ol] | 111 µM | 20 µM | – | – | 0.69 µM | 2.2 µM | 21 µM | 28 µM | – | 200 µM | – | – |
| CCC(O)[C@H](CC)Nc1nc(NCc2cccnc2)c2ncn(C(C)C)c2n1 (mixture of isomers) [(3RS,4S)-4-{9-Isopropyl-6-[(pyridin-3-ylmethyl)-amino]-9H-purin-2-ylamino}-hexan-3-ol] | 17 µM | 13 µM | 2.1 | 1.0 | 0.11 µM | 1.5 µM | 11 µM | 5.5 µM | 2.1 | > 200 µM | 73% | – |
| CC[C@H](Nc1nc(NCc2cccnc2)c2ncn(C(C)C)c2n1)C(O)C(C)C (mixture of isomers) [(3RS,4S)-4-{9-Isopropyl-6-[(pyridin-3-ylmethyl)-amino]-9H-purin-2-ylamino}-2-methyl-hexan-3-ol] | 67 µM | 22 µM | – | – | 1.1 µM | 3.5 µM | 31 µM | 19 µM | – | > 200 µM | – | – |
| CC[C@H](CO)Nc1nc(NCc2ccccc2)c2ncn(C(C)C)c2n1 [Roscovitine, roscovitine] | – | – | – | – | – | – | – | – | – | – | – | % Drug after 30 min. microsomal incubation ([4]; 10 μM compound, 30 min, microsomal protein 0.2 mg, NADPH): 33%; A: % Compound remaining/% roscovitine remaining ([4]; ratio to roscovitine): 1.0 |
| CC[C@H](Nc1nc(NCc2cccnc2)c2ncn(C(C)C)c2n1)C(C)(C)O [(3S)-3-{9-Isopropyl-6-[(pyridin-3-ylmethyl)-amino]-9H-purin-2-ylamino}-2-methyl-pentan-2-ol] | 35 µM | 4.4 µM | 3.2 | 1.4 | 0.07 µM | 2.5 µM | 12 µM | 4 µM | 2.9 | > 200 µM | 78% | IC50 (HeLa): 4.7 ± 0.5 µM; IC50 (Saos-2): 3.9 ± 0.8 µM; IC50 (IMR90): > 20 µM; IC50 (HL-60): 3 ± 0.2 µM; IC50 (A549): 3.6 ± 0.2 µM; IC50 (K-562): 8.4 ± 1.2 µM; IC50 (MCF7): 2.3 ± 0.3 µM; IC50 (Hs27): 11.3 ± 0.7 µM; IC50 (cancer cell lines): 4 ± 2 µM; IC50 (normal cell lines): > 10 µM; IC50 (CCRF-CEM): 3.7 ± 0.3 µM; IC50 (HT-29): 2.3 ± 0.9 µM; IC50 (WI38): > 20 µM |
